Assay [1] deals with Ephrin type-A receptor 2 (Homo sapiens) (UniProt P29317). Kind of assay: Selectivity interaction (KinomeScan (DiscoverX)) EUB0000595a EPHA2. The settings on record: at 10 µM.
The subject of assay [2] is T1, Receptor-type tyrosine-protein kinase FLT3 (Homo sapiens), P36888 [D835Y].
T1 sequence (whole entry): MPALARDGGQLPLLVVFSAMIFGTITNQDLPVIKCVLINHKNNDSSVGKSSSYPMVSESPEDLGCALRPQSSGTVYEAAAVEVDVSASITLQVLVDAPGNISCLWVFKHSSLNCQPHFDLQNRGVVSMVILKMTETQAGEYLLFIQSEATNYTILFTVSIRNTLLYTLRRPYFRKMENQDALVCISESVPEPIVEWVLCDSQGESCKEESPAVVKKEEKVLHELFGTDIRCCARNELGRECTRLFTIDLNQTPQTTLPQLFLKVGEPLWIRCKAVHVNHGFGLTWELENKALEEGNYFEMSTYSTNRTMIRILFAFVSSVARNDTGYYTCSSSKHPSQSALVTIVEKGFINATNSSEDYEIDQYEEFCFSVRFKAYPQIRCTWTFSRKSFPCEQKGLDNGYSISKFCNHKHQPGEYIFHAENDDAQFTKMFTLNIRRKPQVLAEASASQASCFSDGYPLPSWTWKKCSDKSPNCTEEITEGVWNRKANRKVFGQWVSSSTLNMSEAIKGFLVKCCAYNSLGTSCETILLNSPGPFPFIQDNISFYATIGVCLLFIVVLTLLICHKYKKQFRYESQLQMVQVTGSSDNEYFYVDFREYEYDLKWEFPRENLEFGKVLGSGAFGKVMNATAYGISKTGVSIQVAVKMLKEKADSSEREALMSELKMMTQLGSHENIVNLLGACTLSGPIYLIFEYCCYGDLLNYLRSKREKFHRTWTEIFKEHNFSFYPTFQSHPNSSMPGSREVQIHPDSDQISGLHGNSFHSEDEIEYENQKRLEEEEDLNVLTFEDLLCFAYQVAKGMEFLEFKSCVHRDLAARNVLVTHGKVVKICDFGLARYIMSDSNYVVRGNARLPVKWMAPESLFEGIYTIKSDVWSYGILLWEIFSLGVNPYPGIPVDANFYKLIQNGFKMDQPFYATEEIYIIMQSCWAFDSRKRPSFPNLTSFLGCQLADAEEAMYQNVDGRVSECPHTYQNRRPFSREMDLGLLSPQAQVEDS
The settings on record: at 10 µM.

The target of assay [3] is T2, Tyrosine-protein kinase Mer (Homo sapiens) (UniProt Q12866).
T2 sequence (whole entry): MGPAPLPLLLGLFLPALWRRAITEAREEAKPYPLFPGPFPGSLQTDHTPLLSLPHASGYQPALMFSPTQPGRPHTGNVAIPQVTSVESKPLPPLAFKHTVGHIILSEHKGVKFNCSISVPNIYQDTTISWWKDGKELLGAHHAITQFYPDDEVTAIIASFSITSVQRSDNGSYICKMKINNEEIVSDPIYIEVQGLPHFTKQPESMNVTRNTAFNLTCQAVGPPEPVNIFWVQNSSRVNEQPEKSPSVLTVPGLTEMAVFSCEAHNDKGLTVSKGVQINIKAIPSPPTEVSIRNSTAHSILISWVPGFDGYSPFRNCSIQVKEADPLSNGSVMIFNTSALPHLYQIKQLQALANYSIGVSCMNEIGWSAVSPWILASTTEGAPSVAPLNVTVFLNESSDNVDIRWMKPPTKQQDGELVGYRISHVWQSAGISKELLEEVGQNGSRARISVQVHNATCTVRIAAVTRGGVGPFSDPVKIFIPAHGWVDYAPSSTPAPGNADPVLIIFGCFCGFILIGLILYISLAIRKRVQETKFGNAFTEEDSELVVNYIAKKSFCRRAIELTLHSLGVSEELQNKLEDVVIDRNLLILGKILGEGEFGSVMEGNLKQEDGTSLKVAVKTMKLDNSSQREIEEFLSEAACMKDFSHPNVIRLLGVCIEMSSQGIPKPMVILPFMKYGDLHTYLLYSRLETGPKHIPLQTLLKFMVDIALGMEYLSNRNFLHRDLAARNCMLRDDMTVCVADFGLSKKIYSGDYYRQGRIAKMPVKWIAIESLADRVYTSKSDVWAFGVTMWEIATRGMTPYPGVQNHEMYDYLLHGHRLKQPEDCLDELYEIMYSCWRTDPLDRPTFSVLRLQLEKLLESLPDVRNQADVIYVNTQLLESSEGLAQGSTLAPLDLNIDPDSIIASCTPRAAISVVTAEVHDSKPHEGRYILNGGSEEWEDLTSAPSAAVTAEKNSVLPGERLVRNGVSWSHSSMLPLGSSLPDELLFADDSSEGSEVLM
Kind of assay: Selectivity interaction (KinomeScan (DiscoverX)) EUB0000607a MERTK. As to conditions: at 10 µM.

For assay [4], the target named is Homeodomain-interacting protein kinase 2 (Homo sapiens, UniProt Q9H2X6). The settings on record: at 10 µM.
Assay [5] addresses Ribosomal protein S6 kinase alpha-4 (Homo sapiens) (UniProt O75676). Kind of assay: Selectivity interaction (KinomeScan (DiscoverX)) EUB0000311b RPS6KA4. As to conditions: at 1 µM.
Assay [6] has as its target Phosphatidylinositol 4-phosphate 3-kinase C2 domain-containing subunit alpha (Homo sapiens) (UniProt O00443). Kind of assay: Selectivity interaction (ProQinase) EUB0000171b PIK3C2A.
Assay [7] addresses Receptor tyrosine-protein kinase erbB-3 (Homo sapiens) (UniProt P21860). The assay is described as follows: Selectivity interaction (Ambit KINOMEscan and KiNATiv profiling in Jurkat cells) EUB0000090b ERBB3. In kind it is cell-based. The settings on record: at 1 µM.
For assay [8], the target named is Bone morphogenetic protein receptor type-1B (Homo sapiens, UniProt O00238). The assay is described as follows: Selectivity interaction (KinomeScan (DiscoverX)) EUB0001049a BMPR1B. As to conditions: at 1 µM.
The target of assay [9] is Alpha-1A adrenergic receptor (Homo sapiens, UniProt P35348). Kind of assay: Selectivity interaction (Alpha1A calcium flux assay ) EUB0000877a ADRA1A. (Calcium assays in cells follow changes in intracellular calcium, usually with a dye or a luminescent sensor.)
Assay [10] deals with Tyrosine-protein kinase SYK (Homo sapiens, UniProt P43405). Kind of assay: Selectivity interaction (Millipore kinase profiler) EUB0000124b SYK. The settings on record: at 10 µM.
Assay [11] has as its system Proto-oncogene tyrosine-protein kinase receptor Ret (Homo sapiens), P07949 [M918T]. The assay is described as follows: (§1) Selectivity interaction (KinomeScan (DiscoverX)) EUB0000229b RET. The settings on record: at 1 µM.
Assay [12] relates to Proto-oncogene tyrosine-protein kinase receptor Ret (Homo sapiens), P07949 [V804L]. The assay is described as §1. As to conditions: at 1 µM.
The test system of assay [13] is Proto-oncogene tyrosine-protein kinase receptor Ret (Homo sapiens), P07949 [V804M]. The assay is described as §1. The settings on record: at 1 µM.
Assay [14] deals with Proto-oncogene tyrosine-protein kinase receptor Ret (Homo sapiens, UniProt P07949). Described as §1. As to conditions: at 10 µM.
Assay [15] has as its target Mitogen-activated protein kinase kinase kinase 11 (Homo sapiens) (UniProt Q16584). Kind of assay: Selectivity interaction (Kinase panel (KiNativ target engagement assay in Jurkat cells)) EUB0001635a MAP3K11. It counts as cell-based. As to conditions: Selectivity number of off-targets 0.0, Selectivity number of targets 233.0, Source Knowledge https://www.sciencedirect.com/science/article/pii/S2451945619300674?via%3Dihub, at 1 µM.

Chain of Phosphatidylinositol 4-phosphate 3-kinase C2 domain-containing subunit alpha (Homo sapiens) (O00443 whole entry, the tested form may be a part): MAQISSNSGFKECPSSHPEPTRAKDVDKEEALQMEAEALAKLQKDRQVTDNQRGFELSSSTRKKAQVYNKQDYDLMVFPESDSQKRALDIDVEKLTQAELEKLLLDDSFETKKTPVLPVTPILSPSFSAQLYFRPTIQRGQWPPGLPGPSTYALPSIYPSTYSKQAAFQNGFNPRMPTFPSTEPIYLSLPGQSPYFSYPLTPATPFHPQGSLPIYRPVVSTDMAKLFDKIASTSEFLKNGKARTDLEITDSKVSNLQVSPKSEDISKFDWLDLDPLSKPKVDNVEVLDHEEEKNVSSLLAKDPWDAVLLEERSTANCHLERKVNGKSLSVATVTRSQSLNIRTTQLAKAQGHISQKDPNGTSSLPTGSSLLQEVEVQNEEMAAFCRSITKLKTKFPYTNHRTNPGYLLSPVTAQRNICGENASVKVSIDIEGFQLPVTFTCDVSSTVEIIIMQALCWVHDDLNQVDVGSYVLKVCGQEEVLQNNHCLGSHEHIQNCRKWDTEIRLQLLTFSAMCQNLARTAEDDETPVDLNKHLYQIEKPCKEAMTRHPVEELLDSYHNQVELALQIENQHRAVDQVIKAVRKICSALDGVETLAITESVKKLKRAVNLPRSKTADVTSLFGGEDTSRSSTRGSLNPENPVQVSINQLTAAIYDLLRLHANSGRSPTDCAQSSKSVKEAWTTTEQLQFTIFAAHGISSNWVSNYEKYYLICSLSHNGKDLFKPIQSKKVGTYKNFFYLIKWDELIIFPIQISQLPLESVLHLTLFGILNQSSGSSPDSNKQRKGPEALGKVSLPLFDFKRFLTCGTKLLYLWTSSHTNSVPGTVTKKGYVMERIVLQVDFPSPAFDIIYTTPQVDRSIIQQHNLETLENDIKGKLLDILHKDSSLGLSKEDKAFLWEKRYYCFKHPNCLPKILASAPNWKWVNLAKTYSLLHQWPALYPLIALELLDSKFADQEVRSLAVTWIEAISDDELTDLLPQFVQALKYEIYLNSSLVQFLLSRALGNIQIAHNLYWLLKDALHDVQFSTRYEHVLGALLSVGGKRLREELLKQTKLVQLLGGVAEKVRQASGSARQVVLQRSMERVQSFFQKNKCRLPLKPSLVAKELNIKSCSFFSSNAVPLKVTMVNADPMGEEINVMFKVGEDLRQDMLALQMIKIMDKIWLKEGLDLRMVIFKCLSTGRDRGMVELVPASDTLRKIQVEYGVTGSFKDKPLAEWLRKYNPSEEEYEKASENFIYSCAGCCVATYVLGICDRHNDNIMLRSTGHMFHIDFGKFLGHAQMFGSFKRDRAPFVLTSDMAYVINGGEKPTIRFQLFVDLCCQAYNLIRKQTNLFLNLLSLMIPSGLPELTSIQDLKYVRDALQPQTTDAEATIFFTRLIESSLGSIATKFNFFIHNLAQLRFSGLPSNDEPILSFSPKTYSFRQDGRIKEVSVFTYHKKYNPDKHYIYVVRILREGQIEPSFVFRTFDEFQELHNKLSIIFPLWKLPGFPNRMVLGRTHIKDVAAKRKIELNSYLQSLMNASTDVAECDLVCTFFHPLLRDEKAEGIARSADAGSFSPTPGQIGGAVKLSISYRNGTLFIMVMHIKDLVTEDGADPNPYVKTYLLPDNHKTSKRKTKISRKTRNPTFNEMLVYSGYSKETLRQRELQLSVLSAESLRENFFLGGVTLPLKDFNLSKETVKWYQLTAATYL
Chain of Homeodomain-interacting protein kinase 2 (Q9H2X6 whole entry, looked up): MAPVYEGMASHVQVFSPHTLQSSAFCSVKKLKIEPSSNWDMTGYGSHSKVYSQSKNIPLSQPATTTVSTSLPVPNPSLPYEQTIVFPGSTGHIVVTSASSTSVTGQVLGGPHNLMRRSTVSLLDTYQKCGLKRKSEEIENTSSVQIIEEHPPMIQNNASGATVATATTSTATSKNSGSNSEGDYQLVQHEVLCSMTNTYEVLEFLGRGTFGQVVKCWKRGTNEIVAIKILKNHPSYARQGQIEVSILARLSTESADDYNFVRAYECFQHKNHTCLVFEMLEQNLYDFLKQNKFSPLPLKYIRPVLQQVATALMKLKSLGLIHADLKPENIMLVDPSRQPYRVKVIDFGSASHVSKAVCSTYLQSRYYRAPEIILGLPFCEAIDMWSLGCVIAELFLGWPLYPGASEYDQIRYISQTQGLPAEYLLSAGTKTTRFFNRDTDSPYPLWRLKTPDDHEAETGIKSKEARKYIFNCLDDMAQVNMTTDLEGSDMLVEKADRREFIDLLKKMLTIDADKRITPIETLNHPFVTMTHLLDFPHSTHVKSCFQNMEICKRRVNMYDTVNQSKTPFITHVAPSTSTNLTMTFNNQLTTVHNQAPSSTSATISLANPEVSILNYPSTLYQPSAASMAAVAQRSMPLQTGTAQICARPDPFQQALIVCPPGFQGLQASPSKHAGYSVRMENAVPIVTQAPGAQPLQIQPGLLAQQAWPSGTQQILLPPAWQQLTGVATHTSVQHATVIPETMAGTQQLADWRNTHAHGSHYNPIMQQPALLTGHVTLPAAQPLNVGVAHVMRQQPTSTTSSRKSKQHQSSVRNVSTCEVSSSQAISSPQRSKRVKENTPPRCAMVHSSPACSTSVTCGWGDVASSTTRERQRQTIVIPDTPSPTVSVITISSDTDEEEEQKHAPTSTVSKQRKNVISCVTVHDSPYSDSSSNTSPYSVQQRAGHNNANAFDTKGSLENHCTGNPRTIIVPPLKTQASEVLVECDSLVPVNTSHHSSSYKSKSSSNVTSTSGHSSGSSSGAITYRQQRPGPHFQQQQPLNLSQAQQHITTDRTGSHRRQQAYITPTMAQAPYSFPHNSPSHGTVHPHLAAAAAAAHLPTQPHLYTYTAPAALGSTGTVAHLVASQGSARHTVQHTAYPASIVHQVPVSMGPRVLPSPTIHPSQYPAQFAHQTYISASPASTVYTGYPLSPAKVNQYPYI
Chain of Receptor tyrosine-protein kinase erbB-3 (Homo sapiens) (P21860 whole entry): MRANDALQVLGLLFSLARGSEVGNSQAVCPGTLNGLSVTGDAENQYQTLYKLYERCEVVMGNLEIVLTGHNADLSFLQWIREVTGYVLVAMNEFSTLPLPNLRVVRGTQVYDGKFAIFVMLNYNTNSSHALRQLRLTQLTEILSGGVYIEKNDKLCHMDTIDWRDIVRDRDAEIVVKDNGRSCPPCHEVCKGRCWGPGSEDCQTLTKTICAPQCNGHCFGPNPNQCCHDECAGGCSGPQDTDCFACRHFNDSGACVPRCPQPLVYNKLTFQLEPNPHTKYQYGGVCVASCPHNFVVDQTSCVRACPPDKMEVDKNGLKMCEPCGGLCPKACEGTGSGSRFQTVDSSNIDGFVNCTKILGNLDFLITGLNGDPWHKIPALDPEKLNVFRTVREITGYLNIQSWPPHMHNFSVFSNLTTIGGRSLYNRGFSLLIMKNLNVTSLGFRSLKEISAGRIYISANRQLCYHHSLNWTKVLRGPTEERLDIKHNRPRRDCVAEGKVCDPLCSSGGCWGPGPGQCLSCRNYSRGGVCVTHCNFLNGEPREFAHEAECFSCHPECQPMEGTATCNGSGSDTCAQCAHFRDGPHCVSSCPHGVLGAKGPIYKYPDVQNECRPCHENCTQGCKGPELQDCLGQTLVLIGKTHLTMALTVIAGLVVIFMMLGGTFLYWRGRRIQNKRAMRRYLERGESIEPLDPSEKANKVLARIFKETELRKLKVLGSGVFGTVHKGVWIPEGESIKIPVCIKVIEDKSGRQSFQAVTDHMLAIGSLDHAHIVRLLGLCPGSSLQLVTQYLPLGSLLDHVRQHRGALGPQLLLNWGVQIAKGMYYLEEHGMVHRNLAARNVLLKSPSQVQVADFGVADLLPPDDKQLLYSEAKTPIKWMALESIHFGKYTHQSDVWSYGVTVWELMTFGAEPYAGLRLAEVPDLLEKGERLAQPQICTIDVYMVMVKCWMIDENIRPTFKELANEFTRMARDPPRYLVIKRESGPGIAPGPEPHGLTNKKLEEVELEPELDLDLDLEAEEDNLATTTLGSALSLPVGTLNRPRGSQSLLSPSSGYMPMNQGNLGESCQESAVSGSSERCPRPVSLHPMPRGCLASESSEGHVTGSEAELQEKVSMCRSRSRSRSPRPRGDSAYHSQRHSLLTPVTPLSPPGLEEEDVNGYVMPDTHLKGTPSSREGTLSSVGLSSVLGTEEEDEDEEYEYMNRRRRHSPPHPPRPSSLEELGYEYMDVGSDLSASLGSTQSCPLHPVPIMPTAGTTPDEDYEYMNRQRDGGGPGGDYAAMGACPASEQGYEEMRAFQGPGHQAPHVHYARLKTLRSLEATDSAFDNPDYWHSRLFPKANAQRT
Chain of Alpha-1A adrenergic receptor (P35348 whole entry): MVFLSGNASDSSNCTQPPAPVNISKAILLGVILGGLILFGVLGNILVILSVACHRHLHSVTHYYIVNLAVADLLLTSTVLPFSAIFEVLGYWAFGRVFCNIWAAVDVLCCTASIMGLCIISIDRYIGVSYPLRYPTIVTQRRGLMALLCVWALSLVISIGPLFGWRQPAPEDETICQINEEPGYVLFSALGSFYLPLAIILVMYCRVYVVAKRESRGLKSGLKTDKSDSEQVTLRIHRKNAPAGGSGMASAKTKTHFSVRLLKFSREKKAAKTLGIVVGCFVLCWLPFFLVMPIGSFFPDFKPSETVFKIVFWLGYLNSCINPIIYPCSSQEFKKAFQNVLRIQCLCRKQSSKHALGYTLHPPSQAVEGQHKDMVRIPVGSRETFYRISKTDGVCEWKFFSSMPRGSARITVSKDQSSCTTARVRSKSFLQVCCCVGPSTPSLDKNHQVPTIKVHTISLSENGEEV

Compound `COCC(=O)NC/C=C/c1ccc2ncnc(Nc3ccc(Oc4ccc(C)nc4)c(C)c3)c2c1` [CP-724714] showed a % of control in assay [1] of 100%. In [2], `CCN(CC)CCCCNc1ncc2cc(-c3cc(OC)cc(OC)c3)c(NC(=O)NC(C)(C)C)nc2n1` registered a % of control of 100%. As to `CNC(=O)Nc1ccc(-c2nc(N3CC4CCC(C3)O4)c3cnn(C4CCC5(CC4)OCCO5)c3n2)cc1`, the % of control in [3] turned out to be 87%. The compound `Cc1cc([C@@H](C)Nc2ccccc2C(=O)O)c2nc(N3CCOCC3)cc(=O)n2c1` [AZD-6482] gave a % of control in assay [4] of 79%. In the case of `CCc1ccccc1C(=O)Nc1n[nH]c2c(C)c(F)c(C3C(C#N)=C(C)N(C)C(C)=C3C#N)cc12` [BAY-3827], in assay [5], the % of control stood at 8.9%. Regarding `C=CC(=O)Nc1cccc(C(=O)Nc2ccc(Nc3cc(-c4[nH]c(SC)nc4C)ccn3)cc2)c1`, the results for the % of control in assay [6] (at 1 µM) and in assay [6] (at 5 µM) were 189% and 183%, respectively. Turning to `CN(C)C/C=C/C(=O)Nc1ccc(C(=O)N2CCCC(Nc3ncc(Cl)c(-c4c[nH]c5ccccc45)n3)C2)cc1` (stereo unspecified), the % of control in assay [7] stood at 98%.

As for `COc1cc(Nc2nc(C)cc(-c3cnn4nc(OC)ccc34)n2)cc(C(F)(F)F)c1`, the % of control in assay [8] stood at 81%. In the case of `CCC(=O)N1CC[C@H](Nc2ncnc3c2CN(c2cnc(OC)c(C(F)(F)F)c2)CC3)C1` [LENIOLISIB], the IC50 in [9] was above 30 µM. In [10], `CC(=O)Nc1cccc(-n2c(=O)n(C3CC3)c(=O)c3c(Nc4ccc(I)cc4F)n(C)c(=O)c(C)c32)c1` gave a % of control of 74%. With `COc1cc(N(C)c2ccnc3ccc(C(F)(F)F)cc23)cc(OC)c1OC`, the % binding was found to be 100% in assay [11], 96% in [12], 89% in [13] and 97% in [14]. `C=CC(=O)Nc1ccc(C(=O)Nc2[nH]nc3c2CN(C(=O)N[C@H](CN(C)C)c2ccccc2)C3(C)C)cc1`: the % of engagement in [15] is -1.9%.

As a reminder, the IC50 is the concentration that inhibits the measured activity by half.

The values above are taken from ChEMBL document CHEMBL5465560, “Selectivity Literature for EUbOPEN Chemogenomic Library” (2024).
